Starred links: 1 amine or outer side, 2 acyl side, 3 side chain; linkers in the order of their positions; H or OH if unused. Positions of bridges follow the written chain, without caps; N, C: chain ends. Non-standard residues stand in square brackets, D forms with d. Residues, ends and D or L forms follow the SMILES beside them. X1 = O=C([C@@H]1CC(n2cc(-c3ccc(-c4cccs4)cc3)nn2)CN1[*:1])[*:2]

Broadly, the IC50 is the midpoint of a concentration-inhibition curve. Broadly, the EC50 is the concentration needed to bring the measured effect to its halfway point. By CC50 is commonly meant the concentration at which the toxic effect on the cells reaches its halfway point.

Data set [1] relates to Human immunodeficiency virus 1. Briefly: Antiviral activity against HIV-1 Bal(R5) infected in human CEMx174 5.25M7 cells assessed as reduction in p24 antigen level preincubated for 30 mins followed by infection with cells and measured after 3 to 4 days by ELISA. The format is functional, organism-based. As to conditions: Human immunodeficiency virus 1, Bal(R5). A general note: An ELISA detects its analyte on a solid surface through an enzyme-linked reagent.

Data set [2] has as its system Human immunodeficiency virus 1. The experiment in a line: Antiviral activity against HIV-1 IIIB(X4) infected in human MT2 cells assessed as reduction in p24 antigen level preincubated for 30 mins followed by infection with cells and measured after 3 to 4 days by ELISA. The format is functional, organism-based. As to conditions: Human immunodeficiency virus 1, IIIB(X4).

The nature of data set [3]: Selectivity index, ratio of CC50 for cytotoxicity against human MT2 cells to EC50 for antiviral activity against HIV-1 IIIB infected in human MT2 cells. The format is toxicity, cell-based. The note with it: read-out: Ratio CC50/EC50.
In data set [4] the test system is Human immunodeficiency virus 1. Briefly: Antiviral activity against HIV-1 pseudotyped virus expressing HXB-2 Env proteins infected in human TZM-bl cells assessed as inhibition of viral entry preincubated for 30 mins followed by infection with cells and measured after 3 days by luciferase based analysis. The format is functional, organism-based. As to conditions: Human immunodeficiency virus 1, TZM-bl.

For data set [5], the system named is Human immunodeficiency virus 1. The experiment in a line: Antiviral activity against HIV-1 IIIB infected in human MT2 cells assessed as reduction in p24 antigen level incubated for 1 hr by ELISA. As to conditions: Human immunodeficiency virus 1, IIIB, MT2, 1 h. The format is functional, organism-based.
Data set [6] in a line: Selectivity index, ratio of CC50 for Cytotoxicity against human TZM-bl cells to EC50 for antiviral activity against HIV-1 pseudotyped virus expressing HXB-2 Env proteins infected in human TZM-bl cells. The format is toxicity, cell-based. The note with it: read-out: Ratio CC50/EC50.
Data set [7] can be described thus: Cytotoxicity against human MT2 cells assessed as reduction in cell viability incubated for 4 days by XTT assay. As to conditions: time 4 day. The format is toxicity, cell-based. (Formazan colour is commonly taken as a measure of viable cells.)
In data set [8] the test system is Human immunodeficiency virus 1. Briefly: Antiviral activity against laboratory-adapted HIV-1 NL4-3 infected in human TZM-bl cells incubated for 2 days by luciferase based analysis. The data set is classed as functional, organism-based. The note with it: Human immunodeficiency virus 1, NL4-3, TZM-bl, 48 h.
Data set [9] concerns Human immunodeficiency virus 1. Briefly: Antiviral activity against HIV-1 CH58TF infected in human TZM-bl cells assessed as neutralization viral infection pretreated for 1 hr followed by infection with cells and measured after 48 hrs by luciferase assay. As to conditions: Human immunodeficiency virus 1, CH58TF. The format is functional, organism-based.
Data set [10] relates to Human immunodeficiency virus 1. Briefly: Antiviral activity against HIV-1 JR-FL. The format is functional, organism-based. The note with it: Human immunodeficiency virus 1, JR-FL.
For data set [11], the system named is Human immunodeficiency virus 1. The experiment in a line: Antiviral activity against HIV-1 YU-2 assessed as inhibition of viral entry. The format is functional, organism-based. As to conditions: Human immunodeficiency virus 1, YU-2.
For data set [12], the system named is Human immunodeficiency virus 1. Briefly: Antiviral activity against HIV-1 IIIB infected in human MT2 cells assessed as inhibition of p24 production preincubated for 30 mins followed by infection with cells and measured after 4 days by ELISA. The data set is classed as functional, organism-based. As to conditions: Human immunodeficiency virus 1, IIIB.
A short description of data set [13]: Cytotoxicity against human MT2 cells assessed as reduction in cell viability incubated for 4 days by MTS assay. The data set is classed as toxicity, cell-based. As to conditions: time 4 day.
The nature of data set [14]: Cytotoxicity against human TZM-bl cells assessed as reduction in cell viability incubated for 3 days by MTS assay. The format is toxicity, cell-based. The note with it: time 3 day.
The test system of data set [15] is Human immunodeficiency virus 1. The experiment in a line: Antiviral activity against HIV-1 Bal(R5) infected in human CEMx174 5.25M7 cells assessed as inactivation of HIV-1 free virions by measuring p24 antigen level preincubated for 1 hr followed by infection with cells and measured after 3 to 4 days by ELISA. The data set is classed as functional, organism-based. The note with it: Human immunodeficiency virus 1, Bal(R5).

A short description of data set [16]: Cytotoxicity against human CEMx174 5.25M7 cells assessed as reduction in cell viability incubated for 48 hrs by CCK-8 assay. The format is toxicity, cell-based.
For data set [17], the system named is Human immunodeficiency virus 1. Briefly: Antiviral activity against HIV-1 IIIB(X4) infected in human CEMx174 5.25M7 cells assessed as inactivation of HIV-1 free virions by measuring p24 antigen level preincubated for 1 hr followed by infection with cells and measured after 3 to 4 days by ELISA. The format is functional, organism-based. The note with it: Human immunodeficiency virus 1, IIIB(X4).

A short description of data set [18]: Cytotoxicity against human MT2 cells assessed as reduction in cell viability incubated for 48 hrs by CCK-8 assay. The data set is classed as toxicity, cell-based.
Data set [19] addresses Envelope glycoprotein gp160 (Human immunodeficiency virus 1, UniProt Q6QLK5). Briefly: Inhibition of HIV1 gp120 interaction with CD4 pretreated for 1 hr followed by TMB substrate addition and measured after 10 mins by ELISA.
Data set [20] in a line: Cytotoxicity against HOS.T4.R5 cells assessed as reduction in cell viability incubated for 24 hrs by WST-1 assay. As to conditions: human. The format is toxicity, cell-based.
Data set [21] concerns Human immunodeficiency virus 1. The experiment in a line: Antiviral activity against HIV-1 Bal.01 infected in HOS.T4.R5 cells preincubated for 45 mins followed by infection with cells and measured 24 hrs post infection by luminescence based analysis. The format is functional, organism-based. The note with it: Human immunodeficiency virus 1, Bal.01, HOS.T4.R5.

Sequence of Envelope glycoprotein gp160 (Q6QLK5 whole entry): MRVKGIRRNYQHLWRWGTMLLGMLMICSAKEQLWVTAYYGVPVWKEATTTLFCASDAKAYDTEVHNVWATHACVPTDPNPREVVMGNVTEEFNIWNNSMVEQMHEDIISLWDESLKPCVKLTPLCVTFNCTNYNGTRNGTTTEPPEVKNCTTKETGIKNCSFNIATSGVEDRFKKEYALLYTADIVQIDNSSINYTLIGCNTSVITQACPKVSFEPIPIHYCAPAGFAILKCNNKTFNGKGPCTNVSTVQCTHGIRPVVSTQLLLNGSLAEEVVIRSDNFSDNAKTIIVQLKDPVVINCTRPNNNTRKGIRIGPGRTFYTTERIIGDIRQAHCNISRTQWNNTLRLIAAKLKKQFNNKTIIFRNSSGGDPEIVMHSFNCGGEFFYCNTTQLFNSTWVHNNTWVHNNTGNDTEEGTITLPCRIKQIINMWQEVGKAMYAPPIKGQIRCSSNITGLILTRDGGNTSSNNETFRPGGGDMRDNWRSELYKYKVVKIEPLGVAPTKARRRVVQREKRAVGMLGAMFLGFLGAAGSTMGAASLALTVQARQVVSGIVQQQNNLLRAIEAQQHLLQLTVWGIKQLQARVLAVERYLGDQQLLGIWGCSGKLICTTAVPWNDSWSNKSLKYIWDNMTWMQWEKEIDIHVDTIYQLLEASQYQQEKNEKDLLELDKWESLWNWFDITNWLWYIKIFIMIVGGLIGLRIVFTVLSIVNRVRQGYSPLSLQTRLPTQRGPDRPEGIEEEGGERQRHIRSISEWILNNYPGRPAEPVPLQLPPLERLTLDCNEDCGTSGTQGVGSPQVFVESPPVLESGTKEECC

Take `CC1(C)CC(NC(=O)C(=O)Nc2ccc(Cl)c(F)c2)CC(C)(C)N1`: the IC50 in data set [1] and in data set [2] was 830 nM throughout.

With `CC1(C)CC(NC(=O)C(=O)Nc2ccc(Cl)cc2)CC(C)(C)N1`, the selectivity ratio in data set [3] is greater than 43; in [6], 8.7. Further, the EC50 in [4] stood at 6900 nM; in data set [5] it was 6500 nM. The CC50 at 96 h in data set [7] is greater than 280000 nM.

Regarding `COc1ccnc2[nH]cc(C(=O)C(=O)N3CCN(C(=O)c4ccccc4)C[C@H]3C)c12`, the EC50 in data set [8] is 2200 nM.

`NCCNC(=O)N1CCC[C@H](C(=O)Nc2ccc(Cl)c(F)c2)C1`: the EC50 in data set [9] worked out at 7000 nM.

`CCOC(=O)N1CCC[C@H](C(=O)Nc2ccc(Cl)c(F)c2)C1` yielded a concentration giving a half-maximal response (EC50) in [10] of 18000 nM.

`CNCc1ccc2c(c1)[C@H](NC(=O)C(=O)Nc1ccc(Cl)c(F)c1)[C@@H](CNC(=N)N)C2`: the concentration for a half-maximal effect (EC50) in [11] worked out at 1600 nM.

With `CN(Cc1ccc2c(c1)[C@H](NC(=O)C(=O)Nc1ccc(Cl)c(F)c1)[C@@H](CNC(=N)N)C2)C(=N)N`, the results for the EC50 in data set [9] and in data set [11] were 110 nM and 1300 nM, respectively.

The molecule `CNCc1ccc2c(c1)[C@@H](CC[C@@H](O)CO)[C@H](CNC(=N)N)[C@H]2NC(=O)C(=O)Nc1ccc(Cl)c(F)c1` came in with an EC50 in data set [10] of 22000 nM.

For `COc1cnc(-c2csc(CN(C)CCCN(C)C)n2)c2[nH]cc(C(=O)C(=O)N3CCC([C@@H](C#N)c4ccccc4)CC3)c12`, a half-maximal response in data set [8] (EC50) required 20 nM.

For `O=C(O)c1cc(-c2ccc(/C=C3\SC(=S)N(CCc4ccc(O)cc4)C3=O)o2)ccc1Cl`, the IC50 in [1] and in data set [2] was 830 nM each time.

Consider `Cc1nc(C(CN)NC(=O)c2ccc(-c3ccc4c(c3)OCO4)[nH]2)sc1CO` (stereo unspecified), for which the selectivity ratio in data set [3] amounted to 51; in [6] it was 63. Moreover, the concentration giving a half-maximal response (EC50) in [12] turned out to be 3800 nM; in [4], 2300 nM. Besides, the CC50 at 96 h in data set [13] amounted to 193000 nM. For the same molecule, in data set [14], the CC50 at 72 h was 146000 nM.

Consider `CC1(C)CC(NC(=O)C(=O)Nc2ccc(Cl)c(F)c2)CC(C)(C)N1C(=O)COc1ccc(CCN2C(=O)/C(=C/c3ccc(-c4ccc(Cl)c(C(=O)O)c4)o3)SC2=S)cc1`, for which the IC50 in data set [15] came out at 660 nM; in data set [17], 710 nM. The figures for the half-maximal cytotoxic concentration (CC50) at 48 h in [16] and in data set [18] were 18000 nM and 29000 nM, respectively.

For the molecule `COc1ccnc2[nH]cc(C(=O)C(=O)N3CCN(C(=O)c4ccccc4)CC3)c12`, the IC50 in data set [19] is 1.5 nM.

`CC[C@H](C)[C@@H]1NC(=O)[C@H](CC(N)=O)NC(=O)[C@@H](N)CC(=O)NCCCC[C@@H](C(N)=O)NC(=O)[C@H](Cc2c[nH]c3ccccc23)NC(=O)[C@@H]2CC(n3cc(-c4ccc(-c5cccs5)cc4)nn3)CN2C1=O` (stereo partly specified) (H-DNI[X1]WK-NH2; lactam 1-6): the half-maximal cytotoxic concentration (CC50) at 24 h in data set [20] came out at 100000 nM. In data set [21], this molecule displayed an EC50 of 105 nM.

Molecule `CCOC(=O)N1CCCC(C(=O)Nc2ccc(Cl)c(F)c2)C1` (racemic) gave a concentration giving a half-maximal response (EC50) in data set [10] of 8300 nM.
